ChEMBL document CHEMBL4725412, “Augmenting the Activity of Macrolide Adjuvants against Acinetobacter baumannii” (2020)
Active and inactive are the calls of the source. The rule behind the calls is not given here.

What was measured:
Acinetobacter baumannii [1] = test: Potentiation of clarithromycin-induced antibacterial activity against Acinetobacter baumannii AB5075 assessed as clarithromycin MIC at 20 uM incubated for 16 hrs by broth microdilution method (reference value: […] ug/ml); format: functional
Acinetobacter baumannii [2] = test: Potentiation of clarithromycin-induced antibacterial activity against Acinetobacter baumannii AB5075 assessed as clarithromycin MIC at 10 uM incubated for 16 hrs by broth microdilution method (reference value: […] ug/ml); format: functional
Acinetobacter baumannii [3] = test: Potentiation of clarithromycin-induced antibacterial activity against Acinetobacter baumannii AB5075 assessed as fold reduction in clarithromycin MIC at 10 uM incubated for 16 hrs in presence of clarithromycin by broth microdilution method; format: functional
Acinetobacter baumannii [4] = test: Potentiation of clarithromycin-induced antibacterial activity against Acinetobacter baumannii AB5075 assessed as fold reduction in clarithromycin MIC at 20 uM incubated for 16 hrs in presence of clarithromycin by broth microdilution method; format: functional
Acinetobacter baumannii [5] = test: Potentiation of clarithromycin-induced antibacterial activity against Acinetobacter baumannii AB5075 assessed as fold reduction in clarithromycin MIC at 30 uM incubated for 16 hrs in presence of clarithromycin by broth microdilution method; format: functional
Acinetobacter baumannii [6] = test: Potentiation of clarithromycin-induced antibacterial activity against Acinetobacter baumannii AB5075 assessed as clarithromycin MIC at […] incubated for 16 hrs by broth microdilution method (reference value: […] ug/ml); format: functional; conditions: dose 30 µM
Acinetobacter baumannii [7] = test: Antibacterial activity against Acinetobacter baumannii AB5075 assessed as reduction in microbial growth incubated for 16 hrs by broth microdilution method; format: functional
Acinetobacter baumannii [8] = test: Potentiation of clarithromycin-induced antibacterial activity against Acinetobacter baumannii AB5075 assessed as clarithromycin MIC at 5 uM incubated for 16 hrs by broth microdilution method (reference value: […] ug/ml); format: functional
Acinetobacter baumannii [9] = test: Potentiation of clarithromycin-induced antibacterial activity against Acinetobacter baumannii AB5075 assessed as clarithromycin MIC at 7.5 uM incubated for 16 hrs by broth microdilution method (reference value: […] ug/ml); format: functional
Acinetobacter baumannii [10] = test: Potentiation of clarithromycin-induced antibacterial activity against Acinetobacter baumannii AB5075 assessed as fold reduction in clarithromycin MIC at 5 uM incubated for 16 hrs in presence of clarithromycin by broth microdilution method; format: functional
Acinetobacter baumannii [11] = test: Potentiation of clarithromycin-induced antibacterial activity against Acinetobacter baumannii AB5075 assessed as fold reduction in clarithromycin MIC at 7.5 uM incubated for 16 hrs in presence of clarithromycin broth microdilution method; format: functional
Acinetobacter baumannii [12] = test: Potentiation of clarithromycin-induced antibacterial activity against Acinetobacter baumannii AB5075 assessed as clarithromycin MIC at 15 uM incubated for 16 hrs by broth microdilution method (reference value: […] ug/ml); format: functional
Acinetobacter baumannii [13] = test: Potentiation of clarithromycin-induced antibacterial activity against Acinetobacter baumannii AB5075 assessed as clarithromycin MIC at 25 uM incubated for 16 hrs by broth microdilution method (reference value: […] ug/ml); format: functional
Acinetobacter baumannii [14] = test: Potentiation of Colistin-induced Acinetobacter baumannii AB5075 assessed as Colistin MIC at 30 uM by broth microdilution method; format: functional, organism-based

Row | Compound | MIC (Acinetobacter baumannii [1]) | MIC (Acinetobacter baumannii [2]) | fold change (FC) (Acinetobacter baumannii [5]) | MIC (Acinetobacter baumannii [7]) [µM] | also measured
1 | Cc1cc(NC(=O)c2cc(Cl)cc(Cl)c2)ccc1-c1c[nH]c(N)n1.Cl | 0.5 µg/mL | 8 µg/mL | 64 | > 200 | fold change (FC) (Acinetobacter baumannii [3]): 4; fold change (FC) (Acinetobacter baumannii [4]): 64; MIC (Acinetobacter baumannii [6]): 0.5 µg/mL
2 | Cl.Nc1ncc(-c2ccc(NC(=O)c3cc(F)cc(F)c3)cc2)[nH]1 | – | – | 8 | ≥ 200 | MIC (Acinetobacter baumannii [6]): 4 µg/mL
3 | Cl.Nc1nc(-c2c(F)cc(NC(=O)c3cc(Cl)cc(Cl)c3)cc2F)c[nH]1 | 8 µg/mL | – | – | – | fold change (FC) (Acinetobacter baumannii [3]): 2; MIC (Acinetobacter baumannii [6]): 4 µg/mL
4 | Nc1nc(-c2ccc(NC(=O)c3ccc(Cl)c(C(F)(F)F)c3)cc2)c[nH]1 | – | 2 µM | – | 100 | –
5 | Cl.Nc1nc(-c2ccc(NC(=O)c3cc(Cl)cc(Cl)c3)cc2F)c[nH]1 | 0.25 µg/mL | 0.5 µg/mL | 128 | > 200 | MIC (Acinetobacter baumannii [8]): 8 µg/mL; MIC (Acinetobacter baumannii [9]): 4 µg/mL; fold change (FC) (Acinetobacter baumannii [3]): 64; fold change (FC) (Acinetobacter baumannii [10]): 4; fold change (FC) (Acinetobacter baumannii [11]): 8; MIC (Acinetobacter baumannii [6]): 0.5 µg/mL
6 | Cl.Nc1nc(-c2ccc(NC(=O)c3cc(Cl)cc(Cl)c3)c(F)c2)c[nH]1 | – | – | 4 | > 200 | MIC (Acinetobacter baumannii [6]): 16 µg/mL
7 | Cl.Nc1ncc(-c2ccc(NC(=O)c3ccc(Cl)cc3Cl)cc2)[nH]1 | – | – | 8 | ≥ 200 | –
8 | Cl.Nc1nc(-c2ccc(NC(=O)Nc3cc(Cl)cc(Cl)c3)cc2)c[nH]1 | – | – | – | 25 | MIC (Acinetobacter baumannii [8]): 8 µg/mL; MIC (Acinetobacter baumannii [9]): 0.5 µg/mL; fold change (FC) (Acinetobacter baumannii [10]): 4; fold change (FC) (Acinetobacter baumannii [11]): 64
9 | Cl.Nc1nc(-c2ccc(NC(=O)c3cc(C(F)(F)F)cc(C(F)(F)F)c3)cc2)c[nH]1 | – | – | – | 50 | MIC (Acinetobacter baumannii [12]): 8 µg/mL
10 | Cl.Nc1nc(-c2ccc(NC(=O)c3cc(Cl)cc(Cl)c3)c(Cl)c2)c[nH]1 | – | – | 2 | > 200 | MIC (Acinetobacter baumannii [6]): 8 µg/mL
11 | Nc1nc(-c2ccc(NC(=O)c3cc(Cl)c(Br)c(Cl)c3)cc2)c[nH]1 | 0.25 µM | 0.25 µM | – | ≥ 200 | –
12 | Nc1ncc(-c2ccc(NC(=O)c3cc(I)c(I)c(I)c3)cc2)[nH]1 | – | – | – | ≥ 200 | –
13 | Nc1nc(-c2ccc(NC(=O)c3c(F)c(F)c(F)c(F)c3F)cc2)c[nH]1 | – | – | – | ≥ 200 | –
14 | Nc1nc(-c2ccc(NC(=O)c3cccc(Br)c3)cc2)c[nH]1 | – | – | – | ≥ 200 | –
15 | Nc1nc(-c2ccc(NC(=O)c3c(Cl)cc(Cl)cc3Cl)cc2)c[nH]1 | 16 µM | 32 µM | – | 100 | MIC (Acinetobacter baumannii [13]): 8 µM
16 | Nc1nc(-c2ccc(NC(=O)c3cccc(F)c3)cc2)c[nH]1 | – | – | – | ≥ 200 | –
17 | Nc1ncc(-c2ccc(NC(=O)c3ccc(Br)cc3F)cc2)[nH]1 | 16 µM | 32 µM | – | ≥ 200 | Activity (Acinetobacter baumannii [14]): inactive
18 | Cc1cc(C)cc(C(=O)Nc2ccc(-c3c[nH]c(N)n3)cc2)c1.Cl | – | – | – | ≥ 200 | MIC (Acinetobacter baumannii [6]): 2 µg/mL; Activity (Acinetobacter baumannii [14]): inactive
19 | Nc1ncc(-c2ccc(NC(=O)c3ccc(I)cc3)cc2)[nH]1 | – | – | – | ≥ 200 | –

Row | Compound | MIC (Acinetobacter baumannii [1]) | MIC (Acinetobacter baumannii [2]) | fold change (FC) (Acinetobacter baumannii [5]) | MIC (Acinetobacter baumannii [7]) [µM] | also measured
20 | Nc1nc(-c2ccc(NC(=O)c3cc(F)c(F)c(F)c3)cc2)c[nH]1 | 8 µM | 32 µM | – | 100 | –
21 | Cl.Nc1nc(-c2ccc(NC(=O)c3ccc(C(F)(F)F)c(Cl)c3)cc2F)c[nH]1 | – | 8 µg/mL | – | 50 | MIC (Acinetobacter baumannii [9]): 16 µg/mL; fold change (FC) (Acinetobacter baumannii [3]): 4; fold change (FC) (Acinetobacter baumannii [11]): 2; MIC (Acinetobacter baumannii [12]): 0.25 µg/mL
22 | Nc1nc(-c2ccc(NC(=O)c3cccc(Cl)c3)cc2)c[nH]1 | 4 µM | 16 µM | – | ≥ 200 | –
23 | Cc1ccc(C(=O)Nc2ccc(-c3c[nH]c(N)n3)cc2)cc1Cl | – | – | – | 25 | MIC (Acinetobacter baumannii [8]): 16 µM
24 | Nc1nc(-c2ccc(NC(=O)c3ccc(Cl)cc3)cc2)c[nH]1 | 4 µM | 16 µM | – | ≥ 200 | –
25 | Cl.Nc1nc(-c2ccc(NC(=O)c3cc(Cl)cc(Cl)c3)cc2Cl)c[nH]1 | 0.5 µg/mL | 8 µg/mL | 64 | > 200 | fold change (FC) (Acinetobacter baumannii [3]): 4; fold change (FC) (Acinetobacter baumannii [4]): 64; MIC (Acinetobacter baumannii [6]): 0.5 µg/mL
26 | Nc1nc(-c2ccc(NC(=O)c3ccccc3)cc2)c[nH]1 | – | – | – | ≥ 200 | –
27 | Nc1nc(-c2ccc(NC(=O)c3ccc(F)cc3)cc2)c[nH]1 | – | – | – | ≥ 200 | –
28 | Nc1nc(-c2ccc(NC(=O)c3ccc(Br)cc3)cc2)c[nH]1 | – | – | – | ≥ 200 | Activity (Acinetobacter baumannii [14]): inactive
29 | Cc1cc(-c2c[nH]c(N)n2)ccc1NC(=O)c1cc(Cl)cc(Cl)c1.Cl | 1 µg/mL | 16 µg/mL | 64 | > 200 | fold change (FC) (Acinetobacter baumannii [3]): 2; fold change (FC) (Acinetobacter baumannii [4]): 32
30 | Cl.Nc1ncc(-c2ccc(NC(=O)c3cccc(Cl)c3Cl)cc2)[nH]1 | – | – | 4 | ≥ 200 | –
31 | Nc1nc(-c2ccc(NC(=O)c3ccc(C(F)(F)F)cc3)cc2)c[nH]1 | – | – | – | ≥ 200 | –
32 | Cl.Nc1nc(-c2ccc(NC(=O)Nc3ccc(Cl)c(Cl)c3)cc2)c[nH]1 | 0.0625 µg/mL | 0.25 µg/mL | >=512 | 100 | MIC (Acinetobacter baumannii [8]): 8 µg/mL; MIC (Acinetobacter baumannii [9]): 2 µg/mL; fold change (FC) (Acinetobacter baumannii [4]): >=512; fold change (FC) (Acinetobacter baumannii [10]): 4; fold change (FC) (Acinetobacter baumannii [11]): 16; MIC (Acinetobacter baumannii [6]): 0.0625 µg/mL; MIC (Acinetobacter baumannii [12]): 0.125 µg/mL
33 | Cc1ccc(C(=O)Nc2ccc(-c3c[nH]c(N)n3)cc2)cc1F | – | 1 µM | – | 50 | MIC (Acinetobacter baumannii [8]): 16 µM
34 | Cl.Nc1nc(-c2ccc(NC(=O)c3cc(Br)cc(Br)c3)cc2F)c[nH]1 | 8 µg/mL | 16 µg/mL | 16 | > 200 | fold change (FC) (Acinetobacter baumannii [3]): 2; fold change (FC) (Acinetobacter baumannii [4]): 4; MIC (Acinetobacter baumannii [6]): 2 µg/mL
35 | Cl.Nc1nc(-c2ccc(NC(=O)c3ccc(Cl)c(C(F)(F)F)c3)cc2F)c[nH]1 | – | 2 µg/mL | – | 50 | MIC (Acinetobacter baumannii [9]): 8 µg/mL; fold change (FC) (Acinetobacter baumannii [3]): 16; fold change (FC) (Acinetobacter baumannii [11]): 4; MIC (Acinetobacter baumannii [12]): 0.25 µg/mL
36 | Cl.Nc1ncc(-c2ccc(NC(=O)c3ccc(Cl)c(Cl)c3)cc2)[nH]1 | 0.5 µM | 4 µM | 64 | 100 | –
37 | COc1cc(-c2c[nH]c(N)n2)ccc1NC(=O)c1cc(Cl)cc(Cl)c1.Cl | 4 µg/mL | 16 µg/mL | 64 | 100 | fold change (FC) (Acinetobacter baumannii [3]): 2; fold change (FC) (Acinetobacter baumannii [4]): 8; MIC (Acinetobacter baumannii [6]): 0.5 µg/mL
38 | Nc1ncc(-c2ccc(NC(=O)c3cccc(I)c3)cc2)[nH]1 | – | – | – | ≥ 200 | –
